# Source: US20120171201A1
# Experiments:
# [1] = Pharmacokinetics in tumor free Balb/C mice; assay type: in vivo; conditions: Released from Compound 9; single injection 20 mg/kg Compound 9, Balb/C mice, plasma
# Description: Pharmacokinetic analysis was done using non-compartmental analysis (WinNonlin).
# [2] = Solubility in aqueous saline solution
smiles,measurement,setting,value
CCc1c2c(nc3ccc(O)cc13)-c1cc3c(c(=O)n1C2)COC(=O)[C@]3(O)CC,Terminal t 1/2,[1],14.2 h
same,Solubility in Saline,[2],^a7-ethyl-10-hydroxycamptothecin is not soluble in saline.
